In PMC12584752, “Covalent fragment screening to inhibit the E3 ligase activity of bacterial NEL enzymes SspH1 and SspH2” (RSC Chemical Biology, 2025) one finds PKN1 ubiquitination data, which are given here for 2 compounds.

For the assay, the target named is SspH1 (161–700) (Salmonella typhimurium, UniProt D0ZVG2). Briefly: Substrate (PKN1) ubiquitination assay. It counts as biochemical. Also on record: SspH1 (5 μM, 161–700) was prelabelled at 350 rpm, RT for 18 hours; His-tag (N, cleaved yes); made in house; host or cells: E. coli BL21. Conditions: SspH1 pre-labelled with compound overnight at RT; 0–30 minutes. The method, then: Fig. 4 SspH1 in vitro inhibition with compounds 6 and 7. (A) Discharge assay schematic; (B) E2–Ub discharge time course assay with SspH1 pre-treated with either DMSO or compounds 6 or 7. UbcH5A–Ub-cy3 (1 μM) was incubated at RT for 0–30 minutes with SspH1 (residues 161–700, 50 nM) which had been pre-labelled with 6 or 7 at RT overnight. (C) Substrate ubiquitination assay schematic; (D) PKN1 ubiquitination time course assay with SspH1 pre-treated with either DMSO or compounds 6 or 7. A reaction of UBA1 (0.1 μM), UbcH5A (2 μM), ubiquitin (20 μM), PKN1 HR1b (2 μM, residues 122–199) and 10 mM ATP was incubated at RT for 0–30 minutes with SspH1 (residues 161–700, 0.5 μM) which had been pre-labelled with 6 or 7 at RT overnight.
Sequence of SspH1 (161–700) (D0ZVG2 161-700): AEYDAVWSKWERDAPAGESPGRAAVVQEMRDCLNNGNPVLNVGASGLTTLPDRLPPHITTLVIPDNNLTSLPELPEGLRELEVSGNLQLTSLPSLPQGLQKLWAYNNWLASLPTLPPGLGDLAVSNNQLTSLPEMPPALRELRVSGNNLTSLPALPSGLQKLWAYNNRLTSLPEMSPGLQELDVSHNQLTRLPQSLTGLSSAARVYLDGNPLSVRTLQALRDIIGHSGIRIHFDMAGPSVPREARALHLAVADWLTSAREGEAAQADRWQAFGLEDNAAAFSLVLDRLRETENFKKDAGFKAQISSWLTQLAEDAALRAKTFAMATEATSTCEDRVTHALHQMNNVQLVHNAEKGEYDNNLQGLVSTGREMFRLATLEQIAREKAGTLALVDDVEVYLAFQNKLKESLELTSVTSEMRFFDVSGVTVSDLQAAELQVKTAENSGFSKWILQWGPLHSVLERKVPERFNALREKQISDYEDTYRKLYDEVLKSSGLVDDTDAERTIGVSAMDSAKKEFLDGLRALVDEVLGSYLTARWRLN
Alternatively, substrate ubiquitination can be followed in vitro using a reconstituted ubiquitin enzymatic cascade, where recombinant ubiquitin, E1, E2, E3 and substrate are incubated with ATP (Fig. 4C). With SspH1, E3 ligase activity can then be observed by ubiquitination of its substrate PKN1.[25] This assay represents a higher order of complexity and involves three enzymes with catalytic cysteines (E1, E2 and E3) and is closer to in situ E3 activity. We compared SspH1 ubiquitination activity when SspH1 was pre-treated with DMSO or compound 6 or 7 (Fig. 4D), again overnight at room temperature to ensure complete labelling. […]

Turning to `Cc1cc(-c2nc3ccccc3n2C2CCN(C(=O)CCl)CC2)cc(C)c1O.Cl` [compound 6], the PKN1 ubiquitination result is recorded as “completely abrogated”.

With `Cl.O=C(CCl)N1CCC(n2c(-c3ccc(C(F)(F)F)cc3)nc3ccccc32)CC1` [compound 7], the PKN1 ubiquitination result is “completely abrogated”.
